Here are results for two compounds from PubChem BioAssay AID1259407 (Chemical Carcinogenesis Research Information System (CCRIS), 2018).

SMILES strings stand for the structures. Activity calls are given as the source filed them. How the calls were made is not given here.

This data set concerns CCRIS mutagenicity, Ames/micronucleus/aberration tests. The data set can be described thus: CCRIS mutagenicity studies. The following applies: Test System: AMES SALMONELLA TYPHIMURIUM
Where [1] appears, read: Strain/Indicator: TA100, Metabolic Activation: RAT, LIVER, S-9, AROCLOR 1254, Method: STANDARD PLATE.

As to `c1cc2c3c(c1)ccc1cccc(c13)C2`, the mutagenic call is, setting by setting: (Strain/Indicator: TA98, Metabolic Activation: HAMSTER, LIVER, S-9, AROCLOR 1254 (30%), Method: PREINCUBATION) “active; positive”; (Strain/Indicator: TA98, Metabolic Activation: NONE, Method: PREINCUBATION) “inactive; negative”; (Strain/Indicator: TA98, Metabolic Activation: RAT, LIVER, S-9, AROCLOR 1254 (30%), Method: PREINCUBATION) “inactive; negative”; (Strain/Indicator: TA100, Metabolic Activation: HAMSTER, LIVER, S-9, AROCLOR 1254 (30%), Method: PREINCUBATION) “active; positive”; (Strain/Indicator: TA100, Metabolic Activation: NONE, Method: PREINCUBATION) “inactive; negative”; (Strain/Indicator: TA100, Metabolic Activation: RAT, LIVER, S-9, AROCLOR 1254 (30%), Method: PREINCUBATION) “active; positive”. For the same compound, the mutagenic call under setting [1] is “inactive; negative”.

Turning to `CCC(C)(C)OC`, the mutagenic call is “inactive; negative” (Strain/Indicator: TA98, Metabolic Activation: NONE, Method: STANDARD PLATE); “inactive; negative” (Strain/Indicator: TA98, Metabolic Activation: RAT, LIVER, S-9, AROCLOR 1254, Method: STANDARD PLATE); “inactive; negative” (Strain/Indicator: TA100, Metabolic Activation: NONE, Method: STANDARD PLATE); “inactive; negative” under setting [1]; “inactive; negative” (Strain/Indicator: TA1535, Metabolic Activation: NONE, Method: STANDARD PLATE); “inactive; negative” (Strain/Indicator: TA1535, Metabolic Activation: RAT, LIVER, S-9, AROCLOR 1254, Method: STANDARD PLATE). Moreover, the mutagenic call was “inactive; negative” (Strain/Indicator: TA1537, Metabolic Activation: NONE, Method: STANDARD PLATE); “inactive; negative” (Strain/Indicator: TA1537, Metabolic Activation: RAT, LIVER, S-9, AROCLOR 1254, Method: STANDARD PLATE); “inactive; negative” (Strain/Indicator: TA1538, Metabolic Activation: NONE, Method: STANDARD PLATE); “inactive; negative” (Strain/Indicator: TA1538, Metabolic Activation: RAT, LIVER, S-9, AROCLOR 1254, Method: STANDARD PLATE).
